PubChem BioAssay (NCI)
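Briefly, cells in 96-well plates were exposed to five compound concentrations for 48 h, and endpoints were estimated by linear interpolation. The concentration for 50% growth inhibition is given as GI50. TGI marks complete inhibition of growth.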

How the values were obtained:
Assay in all cases: growth of human tumour cells (NCI), 48 h
HL-60(TB) leukemia = test system: HL-60(TB) leukemia
A549 NSCLC = test system: A549 NSCLC
CAKI-1 renal = test system: CAKI-1 renal
NCI-H226 lung = test system: NCI-H226 lung
HCT-15 colon = test system: HCT-15 colon
LOX IMVI melanoma = test system: LOX IMVI melanoma
SK-MEL-28 melanoma = test system: SK-MEL-28 melanoma
COLO 205 colon = test system: COLO 205 colon
M14 melanoma = test system: M14 melanoma
BT-549 breast = test system: BT-549 breast

Compound	TGI (HL-60(TB) leukemia)	TGI (A549 NSCLC)	TGI (CAKI-1 renal)	TGI (NCI-H226 lung)	TGI (HCT-15 colon)	TGI (LOX IMVI melanoma)	TGI (SK-MEL-28 melanoma)	TGI (COLO 205 colon)	TGI (M14 melanoma)	TGI (BT-549 breast)	GI50 (HL-60(TB) leukemia)	GI50 (A549 NSCLC)	GI50 (CAKI-1 renal)	GI50 (NCI-H226 lung)	GI50 (HCT-15 colon)	GI50 (LOX IMVI melanoma)	GI50 (SK-MEL-28 melanoma)	GI50 (COLO 205 colon)	GI50 (M14 melanoma)	GI50 (BT-549 breast)
Cc1cc(O)c(/C=N/C(=S)NCc2ccccc2)c(=O)o1	> 100 µM	> 100 µM	> 100 µM	> 100 µM	> 100 µM	> 100 µM	> 100 µM	> 100 µM	> 100 µM	> 100 µM	–	–	–	–	–	–	–	–	–	–
NC1(C(=O)OCc2ccccc2)CCCC1	54.5 µM	> 100 µM	47.5 µM	91.7 µM	60.8 µM	37.7 µM	48.7 µM	76.7 µM	35.2 µM	33.8 µM	–	–	–	–	–	–	–	–	–	–
CC(=O)OC1=CC(n2cc(F)c(=O)[nH]c2=O)OC(C)C1=O (stereo unspecified)	> 100 µM	> 63.1 µM	> 100 µM	> 100 µM	> 100 µM	> 100 µM	> 100 µM	> 100 µM	> 100 µM	> 100 µM	–	–	–	–	–	–	–	–	–	–
COc1ccc(/C=C(/C#N)n2nnc3cccc(F)c32)cc1	16.2 µM	> 100 µM	11.8 µM	53.8 µM	> 100 µM	> 100 µM	> 100 µM	> 100 µM	3.89 µM	52.9 µM	0.527 µM	1.46 µM	0.733 µM	2.87 µM	0.401 µM	0.78 µM	1.92 µM	0.811 µM	0.467 µM	2.39 µM
COc1c(Cl)c(=O)oc2ccc(Cl)cc12	> 100 µM	> 100 µM	> 100 µM	> 100 µM	> 100 µM	> 100 µM	> 100 µM	> 100 µM	> 100 µM	> 100 µM	–	–	–	–	–	–	–	–	–	–
NS(=O)(=O)c1cc(Br)c(N=Nc2ccc(O)c3ncccc23)c(Br)c1	29.4 µM	60.7 µM	> 100 µM	> 100 µM	> 100 µM	> 100 µM	> 100 µM	> 100 µM	76.8 µM	> 100 µM	–	–	–	–	–	–	–	–	–	–
CC[C@H](Nc1ncnc2nc[nH]c12)c1oc2ccccc2c(=O)c1-c1cccc(F)c1	42.5 µM	> 100 µM	> 100 µM	> 100 µM	> 100 µM	> 100 µM	> 100 µM	> 100 µM	> 100 µM	> 100 µM	11 µM	29.2 µM	14.7 µM	30.3 µM	26.9 µM	26.3 µM	22.6 µM	37.4 µM	28.1 µM	21.1 µM
Cc1cccc(NC(=O)Cn2cnc3sc(C(=O)OC(C)C)c(C)c3c2=O)c1	> 50 µM	> 50 µM	> 50 µM	–	> 50 µM	35.9 µM	> 50 µM	> 50 µM	> 50 µM	25.2 µM	> 50 µM	16.4 µM	45.9 µM	–	32.6 µM	11.2 µM	16.6 µM	> 50 µM	> 50 µM	8.21 µM
CSc1nc(NC2OCC(OC(C)=O)C(OC(C)=O)C2OC(C)=O)c(N=CC=Nc2c(NC3OCC(OC(C)=O)C(OC(C)=O)C3OC(C)=O)nc(SC)[nH]c2=O)c(=O)[nH]1 (stereo unspecified)	> 100 µM	> 100 µM	> 100 µM	> 88.8 µM	> 100 µM	> 100 µM	> 100 µM	> 100 µM	> 100 µM	> 100 µM	–	–	–	–	–	–	–	–	–	–
COc1cc2c(c(OC)c1OC)-c1ccc(OC)c(=O)cc1C(NC(=O)c1ccc(N=[N+]=[N-])cc1)CC2 (stereo unspecified)	0.441 µM	> 100 µM	0.243 µM	3.78 µM	0.561 µM	24.9 µM	> 100 µM	0.0627 µM	31.2 µM	> 100 µM	–	–	–	–	–	–	–	–	–	–
COc1cc(/C=C2\CN(S(=O)(=O)c3ccccc3)C/C(=C\c3cc(CN4CCCC4)c(O)c(OC)c3)C2=O)cc(CN2CCCC2)c1O	2.73 µM	> 100 µM	5.21 µM	–	7.6 µM	1.14 µM	3.56 µM	–	–	5.14 µM	0.513 µM	3.61 µM	1.83 µM	–	2.3 µM	0.332 µM	1.88 µM	–	–	1.99 µM
Nc1ncnc2n[nH]c(Nc3ccc(F)cc3)c12	> 100 µM	> 100 µM	> 100 µM	> 100 µM	> 100 µM	34 µM	88.4 µM	66.1 µM	> 100 µM	> 100 µM	38.5 µM	39.2 µM	4.05 µM	51 µM	8.6 µM	10.1 µM	24.1 µM	17.3 µM	13.4 µM	56.7 µM
O=C(/C=C/c1ccc(Cl)cc1)c1ccc(Nc2ccnc3cc(Cl)ccc23)cc1	59.6 µM	> 100 µM	> 100 µM	> 100 µM	> 100 µM	> 100 µM	> 100 µM	> 100 µM	> 100 µM	> 100 µM	9.16 µM	> 100 µM	–	> 100 µM	23.7 µM	> 46.6 µM	31.9 µM	31.9 µM	26.8 µM	29.3 µM
COc1cc2c3c(n(C)c(=O)c2cc1OC)-c1cc2c(cc1/C3=C\CCN)OCO2	1.52 µM	4.44 µM	3.02 µM	2.42 µM	12.8 µM	0.194 µM	33.5 µM	> 100 µM	4.82 µM	46.1 µM	0.236 µM	0.165 µM	0.112 µM	0.517 µM	0.679 µM	< 0.01 µM	8.76 µM	0.975 µM	0.22 µM	2.13 µM
CCCCCCCCC/C=C1\CCC(CN2CCOCC2)C1=O (stereo unspecified)	4.38 µM	34.7 µM	6.38 µM	15.3 µM	7.05 µM	2.02 µM	9.2 µM	11.2 µM	9.41 µM	3.8 µM	–	–	–	–	–	–	–	–	–	–
